In patent publication US12465050B2, “Compositions comprising a pyridine carboxylate herbicide and protoporphyrinogen oxidase (protox) inhibitor herbicides” (priority 2018, dated 2025):

What was measured:
Assay type in all cases: in vivo
[1] = tested on: Cirsium arvense (Canadian thistle); experiment: Greenhouse postemergence herbicidal effect on CIRAR
Description: (§1) Greenhouse Trial Methodology—Evaluation of Postemergence Herbicidal Effect
(§2) Seeds of the desired test plant species were planted in a 90:10% v/v (volume/volume) mixture of PRO-MIX® BX (Premier Tech Horticulture, Quakertown, Pa., USA) and PROFILE® GREENS GRADE™ (Profile Products LLC, Buffalo Grove, Ill., USA) planting mixture, which typically has a pH of 5.2 to 6.2 and an organic matter content of at least 50 percent, in plastic pots with a surface area of 103.2 square centimeters (cm^2). In some aspects or embodiments, to help ensure good germination and healthy plants, a fungicide treatment and/or other chemical or physical treatment was applied. The plants were grown for 7-36 days (d) in a greenhouse with an approximate 14-hour (h) photoperiod which was maintained at about 23° C. during the day and 22° C. during the night. Nutrients and water were added on a regular basis and supplemental lighting was provided with overhead metal halide 1000-Watt lamps as necessary. The plants were employed for testing when they reached the second or third true leaf stage.
(§3) Emulsifiable concentrates of each of each pyridine carboxylate herbicide (Compound A or Compound B) were prepared at 100 grams acid equivalent per liter (g ae/L). The emulsifiable concentrates also included a safener, cloquintocet mexyl, at 120 grams active ingredient per liter (g ai/L). An aliquot of each emulsifiable concentrate was placed in a 25 mL glass vial and diluted with an aqueous mixture of 1.25% (v/v) ACTIROB® B esterified rapeseed oil (Bayer Crop Science, Research Triangle Park, N.C., USA) or MSO® Concentrate with LECI-TECH® methylated soybean oil (Loveland Products, Loveland, Colo., USA) to obtain concentrated stock solutions at the highest application rate for each herbicide, based upon a 12 milliliter (mL) application volume at a rate of 187 liters per hectare (L/ha). The concentrated stock solutions were further diluted with an aqueous mixture of 1.25% v/v ACTIROB® B or MSO® Concentrate with LECI-TECH® to obtain stock solutions at reduced application rates for each herbicide. Spray solutions of the herbicide combinations (Compound A or Compound B plus PROTOX inhibitor herbicide) were prepared by adding weighed amounts or aliquots of the PROTOX inhibitor herbicides to the stock solutions of Compound A or Compound B to form 12-mL spray solutions in two-way combinations.
(§4) The spray solutions were applied to the plant material with an overhead Mandel track sprayer equipped with 8002E nozzles calibrated to deliver 187 L/ha over an application area of 0.503 square meters (m^2) at a spray height of 18 inches (43 centimeters (cm)) above the average plant canopy. Control plants were sprayed in the same manner with the solvent blank. All pyridine carboxylate herbicide (component a) application rates are given as “g ae/ha” and all PROTOX inhibitor herbicide (component b) application rates are given as “g ai/ha.”
(§5) The treated plants and control plants were placed in a greenhouse as described above and watered by sub-irrigation to prevent wash-off of the test compounds. After 20-22 d, the condition of the test plants as compared with that of the control plants was determined visually and scored on a scale of 0 to 100 percent where 0 corresponds to no injury and 100 corresponds to complete kill.

[2] = tested on: Setaria faberi (giant foxtail); experiment: Greenhouse postemergence herbicidal effect on SETFA
Description: as §1, §2, §3, §4, §5

[3] = tested on: Echinochloa crus-galli (barnyard grass); experiment: Greenhouse postemergence herbicidal effect on ECHCG
Description: as §1, §2
(§6) Emulsifiable concentrates of each of each pyridine carboxylate herbicide (Compound A or Compound B) were prepared at 100 grams acid equivalent per liter (g ae/L). The emulsifiable concentrates also included a safener, cloquintocet mexyl, at 120 grams active ingredient per liter (g ai/L). […]
as §5

Zea mays (maize) = experiment: Greenhouse postemergence phytotoxicity on crop ZEAMX
Description: as §1, §2, §6, §5

[4] = tested on: Sinapis arvensis (wild mustard); experiment: Greenhouse postemergence herbicidal effect on SINAR
Description: as §1, §2, §3, §4, §5

[5] = tested on: Veronica persica (Persian speedwell); experiment: Greenhouse postemergence herbicidal effect on VERPE
Description: as §1, §2
as §3, with “combinations. […]” for “combinations.”
as §5

[6] = Compound A 7.5, Oxyfluorfen 0 g/ha
[7] = Compound A 7.5, Pyraflufen-ethyl 0 g/ha
[8] = Compound A 10, Oxyfluorfen 0 g/ha
[9] = Compound A 10, Pyraflufen-ethyl 0 g/ha
[10] = Compound A 15, Oxyfluorfen 0 g/ha
[11] = Compound A 7.5, Saflufenacil 0 g/ha
[12] = Compound A 10, Saflufenacil 0 g/ha

SMILES: N#CCOC(=O)c1nc(-c2ccc3cc[nH]c3c2F)c(F)c(N)c1Cl [Compound A, cyanomethyl 4-amino-3-chloro-5-fluoro-6-(7-fluoro-1H-indol-6-yl)pyridine-2-carboxylate]
- % visual injury, Obs ([1]; Compound A 7.5, Bifenox 0 g/ha): 70%
- % visual injury, Obs [1, 6]: 50%
- % visual injury, Obs [1, 7]: 40%
- % visual injury, Obs ([1]; Compound A 10, Bifenox 0 g/ha): 68%
- % visual injury, Obs [1, 8]: 63%
- % visual injury, Obs [1, 9]: 55%
- % visual injury, Obs [1, 10]: 63%
- % visual injury, Obs ([2]; Compound A 7.5, Bifenox 0 g/ha): 60%
- % visual injury, Obs [2, 11]: 78%
- % visual injury, Obs ([2]; Compound A 10, Bifenox 0 g/ha): 78%
- % visual injury, Obs [2, 12]: 80%
- % visual injury, Obs ([3]; Compound A 7.5, Bifenox 0 g/ha): 80%
- % visual injury, Obs ([3]; Compound A 10, Bifenox 0 g/ha): 88%
- % visual injury, Obs (Zea mays (maize); [11]): 0%
- % visual injury, Obs (Zea mays (maize); [12]): 0%
- % visual injury, Obs [4, 6]: 88%
- % visual injury, Obs ([4]; Compound A 7.5, Pyraclonil 0 g/ha): 88%
- % visual injury, Obs [4, 7]: 83%
- % visual injury, Obs [4, 8]: 91%
- % visual injury, Obs ([4]; Compound A 10, Pyraclonil 0 g/ha): 92%
- % visual injury, Obs [4, 9]: 88%
- % visual injury, Obs [4, 10]: 91%
- % visual injury, Obs [5, 6]: 78%
- % visual injury, Obs [5, 8]: 90%
- % visual injury, Obs [5, 10]: 93%
